Source: patent publication US20240269313A1, “CONJUGATES COMPRISING A PHOSPHORUS(V) MOIETY AND A DRUG” (Tubulis GmbH, priority 2022, published 2024)

Legend:
[1] = tested on: HER2+ cell lines (N87 and SKBR3); assay: In vitro efficacy with hydroxy-containing drugs (aromatic and aliphatic alcohols); type: cell-based; settings: unconjugated drug
Text: The scope of the linker system of conjugates in accordance with embodiments of the invention has been evaluated with further phenol-(or aromatic alcohol-) containing drugs OTS-964, Ganetespib and Birabresib. OTS-964 is a potent TOPK inhibitor, Ganetespib is a potent […], and Birabresib is a potent bromodomain inhibitor. […] Potency of the free payloads (OTS-964, Ganetespib and Birabresib) in the respective cell lines is also shown.
The scope of the linker system described herein has been also evaluated with further aliphatic alcohol-containing drugs SNX-2112, Gemcitabine and Barasertib. SNX-2112 is a potent HSP90-inhibitor, Gemcitabine is a potent ribonucleotide reductase inhibitor, and Barasertib is a potent Aurora B kinase inhibitor. […] Potency of the free payloads (SNX-2112, Gemcitabine and Barasertib) in the respective cell lines is also shown.

[2] = tested on: Trop2-positive cell lines; assay: In vitro cell viability (in vitro potency) of SN38 based ADCs; settings: various target-positive cell lines
Procedure: Antibody-drug conjugates (ADCs) comprising the anti-Trop2 antibody Sacituzumab, a phosphorus(V) moiety according to embodiments of the present invention, and SN38 as drug were tested in in vitro potency assays against various Trop2-positive cell lines. The corresponding ADCs with the non-targeted antibody Trastuzumab were used as isotype control. For direct comparison, the approved and marketed ADC Trodelvy comprising Sacituzumab, a CL2A linker and SN38 as drug was also tested. The corresponding ADC with Trastuzumab was used as isotype control.
Linkers have been conjugated to Sacituzumab (anti-Trop2) and Trastuzumab (anti Her2, isotype in this setting) and tested on a panel of 4 different cell lines. All cell lines were Trop+ and Her2−. Trastuzumab conjugates serve as isotype control in this setting. […] Sacituzumab-CL2A-SN38 is Trodelvy and has been purchased for the experiment.

Compound | activity of free payload [1] | in vitro potency, non-cleavable control vs cleavable conjugate [2]
Cc1sc2c(c1C)C(c1ccc(Cl)cc1)=N[C@@H](CC(=O)Nc1ccc(O)cc1)c1nnc(C)n1-2 [Birabresib] | lower activities of the unconjugated drugs | –
CC(C)c1cc(-c2n[nH]c(=O)n2-c2ccc3c(ccn3C)c2)c(O)cc1O [Ganetespib] | highest activity as free payload | –
Cc1cc(O)c(-c2ccc(C(C)CN(C)C)cc2)c2c1[nH]c(=O)c1sccc12 (stereo not shown) [OTS-964] | lower activities of the unconjugated drugs | –
Sacituzumab conjugated to O—P5(PEG12)-amidopentyl-Phosphoramidate-N-(4-Methylbenzyl)-O—SN38 | – | not active in the in vitro cell viability assay
